The source of these data is US6916432B2, “Hair bleach composition and hair dye composition” (Kao Corporation, priority 2000, dated 2005).

A short description of one series: partition coefficient (octanol-water) (log P) at 25° C. Particulars: octanol-water, 25° C.
With `COCCOCCO` [methoxydiglycol], the “log P (at 25° C.)” value is on record as −0.7.

The same series, now with this note: octanol/water.
`CCCCOCCOCCO` [diethylene glycol mono-n-butyl ether] came in with a logP of 0.9.

In the case of `CCOCCO` [2-ethoxyethanol], the logP was -0.2.

Take `OCCOCc1ccccc1` [2-benzyloxyethanol]: the logP came out at 1.2.

Take `CCN1CCCC1=O` [N-ethylpyrrolidone]: the logP is -0.2.

Consider `CN1CCCC1=O` [N-methylpyrrolidone], for which the logP is -0.5.

In the case of `CC(O)CO` (centres unmarked) [propylene glycol], the logP is -1.1.

`OCC(O)CO` [glycerin] displayed a logP of -2.2.

`CC(O)COc1ccccc1` (centres unmarked) [1-phenoxy-2-propanol] had a logP of 1.1.

A short description of a further series: physchem.
Details: not given
`CCCCOCCO` [ethylene glycol mono-n-butyl ether] returned a logP of 0.8.

`OCCOc1ccccc1` [2-phenoxyethanol] gave a logP of 1.2.

`OC1CCCCC1` [cyclohexanol] returned a logP of 1.2.

In turn, `OCCOCCO` [diethylene glycol] registered a logP of -1.3.

In turn, `CC(O)CCO` (centres unmarked) [1,3-butanediol] gave a logP of -1.4.

Broadly, the logP is a log measure of how a compound divides between an organic and an aqueous phase. High values mean higher lipophilicity, low ones lower lipophilicity.
